Source: patent publication US20230066049A1, “PEPTIDES USEFUL IN PRESERVATION AND/OR RESTORATION OF FUNCTIONAL PANCREATIC ISLETS AND IN TREATING DIABETES” (THE NATIONAL INSTITUTE FOR BIOTECHNOLOGY IN THE NEGEV LTD., priority 2020, published 2023)
Read-outs that look alike come from different tables or passages of the source.

Assays:
[1] = test system: Glut-2; assay: Glut-2 IF staining of pancreatic sections of STZ/HFD-32-fed mice; type: in vivo, mouse; conditions: STZ/HFD-32-fed mice at steatosis
Protocol: (§1) Male C57BL/6 mice were purchased from Envigo (Jerusalem, Israel). In order to generate the diabetes-based steatosis-NASH mouse model, 2-day-old mice were subjected to a single, low dose subcutaneous injection of streptozotocin (STZ) (200 μg/mouse) and then were fed with the HFD-32 high fat diet starting at the end of week 4. The mice manifested steatosis at 6 weeks and NASH at 8 weeks. These mice are designated herein interchangeably as “NAFLD/diabetes mice model” and “STZ/HFD-32-fed mice”. Mice affected with steatosis were treated with R-Tf-D-LP4 (14 mg/kg) from week 6 to week 8, and mice affected with NASH from week 8 to week 10. The R-Tf-D-LP4 peptide at 14 mg/kg (in 100 μl of Hank's balanced salts solution (HBSS) without calcium) was administered intravenously three times a week. Control groups were intravenously injected with 100 μl of 0.8% DMSO in HBSS buffer from week 6 to week 8 for steatosis affected mice and from week 8 to week […] for NASH affected mice. The final blood DMSO concentration was 0.07% in control and peptide-treated mice.
(§2) At the end of the experiment, the mice were sacrificed by CO2 inhalation and the livers and pancreases were removed. Livers were photographed and the lipid content was assessed. […]

[2] = test system: ob/ob mice; conditions: diabetic (ob/ob) mice and NAFLD affected mice; Pittala et al., Cells 2020; cited from earlier work
[3] = test system: Ki-67; assay: Ki-67 IF staining (proliferation) in pancreas of STZ/HFD-32-fed mice; type: in vivo, mouse; conditions: steatosis stage; compared to chow diet-fed and STZ/HFD-32-fed mice
Protocol: as §1, §2

[4] = test system: STZ/HFD-32-fed mice; conditions: 2019, cited from earlier work
[5] = test system: Langerhans islets; assay: Glucagon IHC staining of Langerhans islets (islet morphology) in STZ/HFD-32-fed mice; type: in vivo, mouse
Protocol: as §1, §2

[6] = test system: VDAC1; assay: VDAC1 IHC/IF staining of Langerhans islets of STZ/HFD-32-fed mice; type: in vivo, mouse
Protocol: Male C57BL/6 mice were purchased from Envigo (Jerusalem, Israel). In order to generate the diabetes-based steatosis-NASH mouse model, 2-day-old mice were subjected to a single, low dose subcutaneous injection of streptozotocin (STZ) (200 μg/mouse) and then were fed with the HFD-32 high fat diet starting at the end of week 4. The mice manifested steatosis at 6 weeks and NASH at 8 weeks. These mice are designated herein interchangeably as “NAFLD/diabetes mice model” and “STZ/HFD-32-fed mice”. Mice affected with steatosis were treated with R-Tf-D-LP4 (14 mg/kg) from week 6 to week 8, and mice affected with NASH from week 8 to week 10. The R-Tf-D-LP4 peptide at 14 mg/kg (in 100 μl of Hank's balanced salts solution (HBSS) without calcium) was administered intravenously three times a week. […]
as §2
The expression of VDAC1 was examined in the pancreas of STZ/HFD-32 diet-fed mice, representing NAFLD affected mice on a diabetic background with and without R-Tf-D-LP4 peptide treatment as compared to the levels in islets from mice fed with chow-diet (FIG. 5). Formaldehyde-fixed, paraffin-embedded pancreas sections were analyzed by IHC staining for VDAC1 using anti-VDAC1 specific antibodies. […]

[7] = test system: STZ/HFD-32-fed mice; assay: NAFLD/diabetes mice model (STZ/HFD-32-fed mice): number and size of Langerhans islets, blood glucose; type: in vivo, mouse; conditions: for Average No. of islets per mouse / Total No. of islets: 14 mg/kg i.v. three times a week
Excerpt: The HFD-32 diet was as described previously (Fujii, M., et al. Med Mol Morphol, 2013. 46(3): p. 141-52; 507.6 kcal/100 g, 56.7% kcal from fat) comprising 5% egg white powder (MM Ingredients, Wimborne, UK), 6.928% lactose (Pharma Grade, Nelson, UK), 15.88% beef fat (contains 80% fat), 5% AIN93G-mineral mixture, 0.002% tertiary butyl hydroquinone and 1.4% AIN93VX-vitamin mix (MP Biomedical, Illkirch, France), 24.5% milk casein (Shaanxi Fuheng Biotechnology, Xi'an, China), 20% safflower oil (high oleic acid content) (Bustan Briut, Galil, Israel), 6.45% sucrose, 0.43% L-cysteine, 5.5% crystalline cellulose (Sigma), 0.36% choline bitartrate and 8.25% maltodextrin (Bulk Powders, Colchester, UK). Control C57BL/6 mice were fed with a standard chow diet (408.4 kcal/100 g, 57% kcal from carbohydrates, 27% kcal from proteins, 16% from fat (V1154-703, S sniff Spezialdaten, Sosset, Germany).
as §1
At the end of the experiment, the mice were sacrificed by CO2 inhalation and the livers and pancreases were removed. Livers were photographed and the lipid content was assessed. For this purpose, part of the liver was frozen in OCT (optimal cutting temperature) compound, embedded, sectioned, and stained with oil red O. The pancreases were fixed with formaldehyde, embedded in paraffin, sectioned, and subjected to immunohistochemical (IHC) or immunefluorescent (IF) staining, as described below.
(§3) Immunohistochemistry (IHC) and immunofluorescence (IF) staining was performed on 5 μm-thick formalin-fixed and paraffin-embedded pancreatic tissue sections. Sections were deparaffinized (5 minutes in xylene, 3 times), followed by rehydration with a graded ethanol series (50%, 70%, 95%, 100%). Antigen retrieval was performed by 20 min incubation in preheated 0.01 M citrate buffer, pH 6.0 at 95-98° C. Sections were washed with PBS pH 7.4 containing 0.1% Triton-X100 (PBST), incubated in 10% NGS and 1% BSA for 2 h, followed by overnight incubation at 4° C. with primary antibodies (see Table 1). Sections were then washed with PBST. For IHC staining, endogenous peroxidase activity was blocked by incubating the sections in 3% H2O2 for 15 min. Following washing with PBST, sections were incubated for 2 h with the appropriate secondary HRP-conjugated antibodies. Sections were washed with PBST and peroxidase activity was visualized by incubating with DAB. After rinsing in water, the sections were counter-stained with hematoxylin, dehydrated with a graded ethanol series (50-100%), incubated in xylene, and mounted with mounting medium. Finally, images from the sections were collected using an automatic digital slide scanner (Panoramic
MIDI II, 3DHISTECH) with the same light intensity and exposure time. Non-specific control experiments were carried out using the same protocols but omitting incubation with primary antibodies. For IF staining, sections were incubated for 2 h with the appropriate secondary Alexa Fluor conjugated antibodies. […]

[8] = test system: ob/ob mice; assay: Ob/Ob diabetes mouse model: blood glucose, body weight, Langerhans islets; type: in vivo; conditions: 14 mg/kg intravenous three times a week
Protocol: Six week old male (C57BL/6) Ob/Ob (Jackson Laboratory, Bar Harbor, Me.) mice were treated with R-Tf-D-LP4 (14 mg/Kg) from week 6 to week 13 by intravenous administration of the R-Tf-D-LP4 peptide in 100 μl of Hank's balanced salts solution (HBSS) without calcium three times a week. A control group received 100 μl of 0.8% DMSO in HBSS buffer injected intravenously. The final blood DMSO concentration was 0.07% in both control and peptide-treated mice. Blood glucose levels were measured once a week. At the end of the experiment, the mice were sacrificed, and the pancreas was removed and fixed with formaldehyde, embedded in paraffin, sectioned, and subjected to immunefluorescent (IF). The experimental protocol used in the mouse model was approved by the Institutional Animal Care and Use Committee.
as §3
MIDI II, 3DHISTECH) with the same light intensity and exposure time. Non-specific control experiments were carried out using the same protocols but omitting incubation with primary antibodies. For IF staining, sections were incubated for 2 h with the appropriate secondary Alexa Fluor conjugated antibodies. Sections were washed with PBST, counter—stained with DAPI (0.07 μg/ml), washed with PBST, and mounted with mounting media. […]
STZ/HFD-32-fed mice at the end of study before sacrifice. In the case of the ob/ob mice, weekly blood samples were collected from the tail, and blood glucose levels were measured immediately using an Accu-Check Performa blood glucose meter.

[9] = test system: 3T3-L1 adipocytes; assay: Oil Red O staining of intracellular lipids in adipocytes; type: cell-based, mouse; conditions: 10 μM peptide, 24 h
Protocol: 3T3-L1 mouse embryo fibroblasts were purchased from the American Type Culture Collection (ATCC Manassas, Va.) and maintained in a humidified atmosphere of 5% CO2, 95% air at 37° C. in Dulbecco's modified Eagle's growth medium (DMEM) with high glucose ([…]), supplemented with 10% fetal calf serum, and 1% penicillin-streptomycin. For R-Tf-D-LP4 peptide treatment, […] cells (6×10^5/ml at 70-80% confluence) were incubated with the R-Tf-D-LP4 peptide in 500 μl serum-free medium for 24 h at 37° C. and 5% CO2. The cells were then stained with Oil red O as described below.
3T3-L1 cells were washed with PBS, fixed with formaldehyde for 15 min, and then subjected to Oil Red O staining for 30 min at room temperature followed by staining with Hematoxylin. Microscope images were collected to visualize the red oil droplets in the cells. Finally, the cells were washed with H2O followed by three washes with 60% isopropanol with gentle rocking. The Oil Red O stain was extracted with 100% isopropanol for 5 min and the absorbance at 492 nm was measured and normalized to the same number of cells counted before stain extraction.

[10] = test system: PDX1; assay: PDX1 IF co-staining in pancreas of STZ/HFD-32-fed mice; type: in vivo, mouse
Protocol: as §1, §2

[11] = test system: db/db mice; conditions: Zhang et al., 2019; cited from earlier work

In the case of “D-Lys-D-Trp-D-Thr-D-Trp-D-Lys-D-Asn-D-Ser-D-Asn-D-Gly-D-Ala-D-Thr-D-Trp-D-Ala-D-Leu-D-Asn-D-Val-D-Ala-D-Thr-D-Glu-D-Leu-D-Lys-D-Lys-D-Glu-D-Trp-D-Thr-D-Trp-D-Ser-His-Arg-Pro-Tyr-Ile-Ala-His [R-Tf-D-LP4]”, the “Glut-2 expression in islets” value [1] is given as “re-expressed”, the blood glucose levels [2] is given as “reduced blood glucose levels” and the “increase in number of Ki-67 positive cells in the islet interior” value [3] is given as “about 8 fold”. The “increase in number of Ki-67 positive cells outside of the islets” value [3] was ~3 fold, the “β-oxidation in the liver” value ([4]; STZ/HFD-32-fed mice, Pittala et al.) was “accelerated β-oxidation in the liver” and the liver pathology ([4]; mouse model for NAFLD, WO 2017/037711, Pittala et al.) was “reverse liver pathology to a normal-like state”. For the same compound, the “islet morphology (localization of glucagon-producing cells)” value ([5]; NASH stage) was “completely restored”, the “islet morphology (localization of glucagon-producing cells)” value ([5]; steatosis stage) was “improved to some extent” and the “VDAC1 staining level in the islets” value ([6]; IHC, 14 mg/kg) was “this level decreased”. For the same compound, the “islet morphology and size (IF co-staining VDAC1 and insulin)” value ([6]; steatosis stage) was “displayed a normal morphology and large islets”, the “number of islets per mouse, Islet size, 1-50 nm” value ([7]; NASH) was 16 and the “number of islets per mouse, Islet size, 51-100 nm” value ([7]; NASH) was 12. The “number of islets per mouse, Islet size, 101-150 nm” value ([7]; NASH) was 4, the “number of islets per mouse, Islet size, 151-300 nm” value ([7]; NASH) was 3 and the “Average No. of islets per mouse” value ([7]; NASH, week 8 to 10) was 35. The “Total No. of islets” value ([7]; NASH, week 8 to 10, n = 10) was 354 (n = 10), the “size and number of Langerhans islets” value ([7]; STZ/HFD-32-fed mice, steatosis or NASH stage) was “both the size and the number of Langerhans islets were increased” and the blood glucose levels ([7]; STZ/HFD-32 mice model) was “reduced blood glucose levels”. For the same compound, the “insulin content within the islets” value ([7]; STZ/HFD-32 mice model) was “increased insulin content within the islets”, the “number of islets per mouse, Islet size, 1-50 nm” value ([7]; Steatosis) was 16 and the “number of islets per mouse, Islet size, 51-100 nm” value ([7]; Steatosis) was 8. The “number of islets per mouse, Islet size, 101-150 nm” value ([7]; Steatosis) was 2, the “number of islets per mouse, Islet size, 151-300 nm” value ([7]; Steatosis) was 1 and the “Average No. of islets per mouse” value ([7]; Steatosis, week 6 to 8) was 27. The “Total No. of islets” value ([7]; Steatosis, week 6 to 8, n = 17) was 451 (n = 17), the “further increase of the number of islets over chow diet level” value ([7]; mice affected with NASH) was 30% and the “number of the islets compared with chow diet-fed mice” value ([7]; mice with steatosis) was “to the level observed in mice fed with chow diet”. For the same compound, the blood glucose levels [8] was “reduced the levels of blood glucose”, the insulin production [8] was “improved insulin production” and the “number of Langerhans islets” value ([8]; H&E and anti-insulin staining) was “increased the number of islets”. The “body weight (weekly average weight)” value ([8]; followed for 7 weeks) was “no such effect was observed”, the “decrease in the amount of lipid (extraction of Oil red O stain)” value [9] was 90% and the PDX1 staining level ([10]; co-staining PDX1 and glucagon, over the level in control chow-fed mice) was “highly increased”. For the same compound, the PDX1 staining level ([10]; co-staining PDX1 and insulin) was “showed a higher level of staining for PDX1”.

For O=C(CC(CO)N1CCN(c2ccc(OC(F)(F)F)cc2)CC1)Nc1ccc(Cl)cc1 (stereo not drawn) [VBIT-4, N-(4-chlorophenyl)-4-hydroxy-3-(4-(4-(trifluoromethoxy)phenyl)piperazin-l-yl) butanamide], the glucose tolerance [11] is listed as “maintained normal glucose tolerance”, the hyperglycemia [11] is listed as “prevented hyperglycemia” and the insulin secretion [11] is listed as “stimulated insulin secretion”.
